Reference: patent US6531456B1, “Gene therapy for the treatment of solid tumors using recombinant adeno-associated virus vectors” (Avigen, Inc., priority 1996, dated 2003)

Legend:
[1] = test system: human U-251SP glioma cells; experiment: In vitro sensitivity of rAAVtk-IRES-hIL2-transduced cells to ganciclovir; type: cell-based
Method: More particularly, transduced cells were exposed to varying amounts of GCV to assess their sensitivity to the pro-drug. In the study 1×10^4 human U-251SP glioma cells were incubated for 12 hours with rAAVtk-IRES-hIL2 at MOIs of 0, 3×10^2, 3×10^3, 3×10^4, 3×10^5, and 3×10^6. The transduced cells were then incubated for an additional 72 hours in fresh medium containing serial dilutions of GCV at a final concentration of from 0.1-100 μg/mL.
In order to determine if cells transduced with the HSV-tk gene had enhanced susceptibility to the cytocidal effects of GCV, the following study was carried out. Recombinant AAV virion-transduced cells were exposed to varying amounts of GCV to assess their sensitivity to the drug. Particularly, 1×10^4 human U-251SP glioma cells/well (cultured in 200 μL of complete medium) were incubated with various concentrations of rAAVtk-IRES-hIL2 (at MOIs of 0, 3×10^2, 3×10^3, 3×10^4, 3×10^5, and 3×10^6) for 12 hours. The transduced cells were then incubated for an additional 72 hours in fresh medium containing serial dilutions of GCV at a final concentration of from 0.1-100 μg/mL. The numbers of living cells were then determined using the trypan blue dye exclusion method, and compared with those of nontransduced cells cultured without GCV treatment.

U-251SP cells = experiment: In vitro bystander tumoricidal effect, coculture of transduced and non-transduced cells; type: cell-based, human; conditions: 4.5 μg/mL ganciclovir, 3 days
Method: FIG. 3 depicts the in vitro cytocidal bystander effect observed in non-transduced cells that were cultured with HSV-tk transduced cells as described in Example 3. Cell co-cultures containing a total of 1×10^4 cells were formed by combining cells that were transduced with rAAVtk-IRES-hIL2 virions at the following ratios: 1:0, 1:1, 1:10, 1:100 and 0:1 (transduced:nontransduced cells). After a 24 hour incubation, the co-cultures were exposed to 4.5 μg/mL of ganciclovir and allowed to incubate for an additional 3 days. Numbers of living cells were counted using the trypan blue dye exclusion method. The Figure indicates % cell survival compared to the cultures containing only non-transduced cells (0:1). The data is presented a mean +/− a standard error deviation based on duplicate experiments.
In order to assess the in vitro bystander tumoricidal effect of HSV-tk transduced cells on neighboring non-transduced cells, the following study was carried out. U-251SP cells were incubated for 12 hours in DMEM medium containing rAAVtk-IRES-hIL2 virions at a MOI of 1.9×10^6. Since this MOI was greater than the MOI determined necessary for 100% transduction by the rAAVlacZ virions (e.g., 3×10^5 as determined above in Example 1), the incubated cells were considered to be 100% transduced. The rAAVtk-IRES-hIL2 transduced cells were cocultured with non-transduced U-251SP cells at ratios of 1:0, 1:1, 1:10, 1:100 and 0:1 (transduced:nontransduced cells) to provide 1×10^4 total cells per well in a 24 well tissue culture plate. 24 hours after the coculture was initiated, 4.5 μg/mL of ganciclovir (DENOSINE® Roche, Basel, Switzerland) was added to each well in fresh media. After 3 days, the numbers of living cells were determined using the trypan blue dye exclusion method.

[2] = 3 patients; cited from earlier work

SMILES: Nc1nc(O)c2ncn(COC(CO)CO)c2n1 [GCV, ganciclovir]
- inhibition ([1]; 4.5 μg/mL of GCV, rAAVtk-IRES-hIL2 at a MOI of 3×10^3): more than 80%
- IC50 ([1]; Homo sapiens, Glioma cell, GCV 72 hours, cells exposed to rAAVtk-IRES-hIL2 at a MOI of 3×10^3 or greater, read-out: TCID50): < 0.28 µg/mL
- effect on cell growth ([1]; high doses of GCV, non-transduced cells): mild inhibitory effect
- tumoricidal effect compared with only non-transduced cells (0:1) (U-251SP cells; 1% rAAVtk-IRES-hIL2-transduced cells (1:100)): 15.1%
- tumoricidal effect compared with only non-transduced cells (0:1) (U-251SP cells; 10% rAAVtk-IRES-hIL2-transduced cells (1:10)): 58.1%
- sensitivity to GCV killing (U-251SP cells; 50% rAAVtk-IRES-hIL2-transduced cells (1:1)): as sensitive to GCV killing as were cultures containing 100% transduced cells
- concentration in the CSF [2]: 0.31 to 0.68 µg/mL
- concentration in the plasma [2]: 0.44 to 2.20 µg/mL
